From patent US20240270741A1 (Cogent Biosciences, Inc., priority 2023, published 2024) come the findings set out here.

SMILES strings stand for the structures. Where a name gives a salt, the structure may show the parent alone.

For one assay, the target named is FGFR2 (Homo sapiens, UniProt P21802). The assay can be described thus: FGFR wild type enzyme assay (HTRF KinEASE-TK), FGFR2. As to conditions: Enz FGFR2 (nM). A general note: TR-FRET usually uses a lanthanide donor and a delayed reading to cut background.
FGFR2, sequence (P21802 399-821 limits assumed): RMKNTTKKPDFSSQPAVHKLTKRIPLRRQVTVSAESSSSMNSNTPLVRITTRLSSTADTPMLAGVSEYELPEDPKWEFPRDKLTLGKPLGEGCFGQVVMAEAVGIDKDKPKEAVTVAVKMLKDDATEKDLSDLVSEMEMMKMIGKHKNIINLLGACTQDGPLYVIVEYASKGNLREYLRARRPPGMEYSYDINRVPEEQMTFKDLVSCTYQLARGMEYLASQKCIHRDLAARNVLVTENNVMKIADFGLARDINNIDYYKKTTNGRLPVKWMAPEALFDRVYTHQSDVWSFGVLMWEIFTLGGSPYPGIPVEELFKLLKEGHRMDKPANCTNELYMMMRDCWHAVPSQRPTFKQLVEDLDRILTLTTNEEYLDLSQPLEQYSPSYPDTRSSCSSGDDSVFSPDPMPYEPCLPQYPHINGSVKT
Experimental: Activity against FGFR wild type and mutant enzymes were determined in biochemical assays using purified intracellular domains of the respective isoforms using HTRF KinEASE-TK assay technology from CisBio, now PerkinElmer. (Catalogue number 62TK0PEC). Briefly test compounds were tested in 11 point 1:3 serial dilutions, typical final concentration ranges from 10,000 nM to 0.17 nM. Test compounds were dissolved in DMSO and added to assay plates using acoustic transfer. Enzyme was pre-incubated with test compound for 30 minutes and the assay was initiated by addition of ATP and TK-peptide substrate. After 60 minutes at room temperature the reaction was quenched with detection reagent and incubated for an additional 60 minutes at room temperature. The plates were read using a multimode reader and the emission ratio of 665 nm to 615 nm was determined. This ratio was converted to percent of control (POC). [1-(high control-sample signal)/(high control-low control)]*100. Wells without compound were used to determine high control values and wells without enzyme were used to determine low control values. The POC values were fit using a four-parameter logistic model and the value where the fit curve was equal to 50 POC was reported as the IC50 using the Signals Vitro Vivo software package (PerkinElmer). Final assay conditions were: 50 mM HEPES pH7.5, 10 mM MgCl2, 1 mM EDTA, 0.01% Brij-35, 2 mM MnCl2, 1 mM DTT, and 0.5 uM TK-peptide.
One may read the IC50 as the midpoint of a concentration-inhibition curve. Low values mean higher potency, high ones lower potency. In turn, `Cc1c(-c2cc(SCCOC(C)C)c3c(C#N)cnn3c2)cnn1[C@H]1CCCNC1` [Example 85, 4-(2-isopropoxyethylsulfanyl)-6-[5-methyl-1-[(3S)-3-piperidyl]pyrazol-4-yl]pyrazolo[1,5-a]pyridine-3-carbonitrile] registered an IC50 of 7 nM.

`N#Cc1cnn2cc(-c3cnn([C@H]4CCNC4)c3)cc(Sc3ccccn3)c12` [Example 73, (S)-4-(pyridin-2-ylthio)-6-(1-(pyrrolidin-3-yl)-1H-pyrazol-4-yl)pyrazolo[1,5-a]pyridine-3-carbonitrile, HCl]: the IC50 is 4 nM. Compound `CC(C)N1CCC(n2cc(-c3cc(Sc4ccccn4)c4c(C#N)cnn4c3)cn2)CC1` [Example 92, 6-[1-(1-isopropyl-4-piperidyl)pyrazol-4-yl]-4-(2-pyridylsulfanyl)pyrazolo[1,5-a]pyridine-3-carbonitrile] showed an IC50 of 3 nM.

Staying with this assay, now noted: Enz FGFR2 (nM), FGFR2 wild type enzyme.
Turning to `Cc1c(-c2cc(Sc3ncccc3F)c3c(C#N)cnn3c2)cnn1[C@H]1CC[C@@H](N(C)S(C)(=O)=O)CC1` [Example 249, N-((1s,4s)-4-(4-(3-cyano-4-((3-fluoropyridin-2-yl)thio)pyrazolo[1,5-a]pyridin-6-yl)-5-methyl-1H-pyrazol-1-yl)cyclohexyl)-N-methylmethanesulfonamide], half-maximal inhibition (IC50) was put at 3 nM. `Cc1c(-c2cc(Sc3ccccc3C#N)c3c(C#N)cnn3c2)cnn1[C@H]1CC[C@@H](NCC2(C)CC2)CC1` [Example 257, 4-((2-cyanophenyl)thio)-6-(5-methyl-1-((1s,4s)-4-(((1-methylcyclopropyl)methyl)amino)cyclohexyl)-1H-pyrazol-4-yl)pyrazolo[1,5-a]pyridine-3-carbonitrile] had an IC50 of 0.5 nM. Still for that read-out and setting: then `CC(=O)N1CCC(n2ncc(-c3cc(Sc4ncc(F)cc4F)c4c(C#N)cnn4c3)c2C)CC1` [Example 164, 6-(1-(1-acetylpiperidin-4-yl)-5-methyl-1H-pyrazol-4-yl)-4-((3,5-difluoropyridin-2-yl)thio)pyrazolo[1,5-a]pyridine-3-carbonitrile], with 5 nM; and `Cc1c(-c2cc(Sc3ccccc3C#N)c3c(C#N)cnn3c2)cnn1CC1CCNCC1` [Example 200, 4-((2-cyanophenyl)thio)-6-(5-methyl-1-(piperidin-4-ylmethyl)-1H-pyrazol-4-yl)pyrazolo[1,5-a]pyridine-3-carbonitrile], with 1 nM.

The assay is the same for the next values; noted with them: Enz FGFR2 (nM), FGFR2 wild type enzyme assay.
The compound `Cn1cc(-c2cc(Sc3ncccc3F)c3c(C#N)cnn3c2)cn1` [Example 466, 4-((3-fluoropyridin-2-yl)thio)-6-(1-methyl-1H-pyrazol-4-yl)pyrazolo[1,5-a]pyridine-3-carbonitrile] returned an IC50 of 6 nM. On the same count and under the same terms, then `N#Cc1cnn2cc(-c3ccc(N4CC[C@H](O)C4)nc3)cc(Sc3ncccc3F)c12` [Example 550, (S)-4-((3-fluoropyridin-2-yl)thio)-6-(6-(3-hydroxypryrrolidin-1-yl)pyridin-3-yl)pyrazolo[1,5-a]pyridine-3-carbonitrile], with 1.5 nM. On the same count and under the same terms, then `CC(=O)N1CCC(n2cc(-c3cc(Sc4ncccc4F)c4c(C#N)cnn4c3)cn2)CC1` [Example 428, 6-(1-(1-acetylpiperidin-4-yl)-1H-pyrazol-4-yl)-4-((3-fluoropyridin-2-yl)thio)pyrazolo[1,5-a]pyridine-3-carbonitrile], with 1 nM; and `Cc1c(-c2cc(Sc3ccc(F)cc3C#N)c3c(C#N)cnn3c2)cnn1[C@H]1CC[C@H](OP(=O)(O)O)CC1` [Example 679, sodium (1r,4r)-4-(4-(3-cyano-4-((2-cyano-4-fluorophenyl)thio)pyrazolo [1,5-a]pyridin-6-yl)-5-methyl-1H-pyrazol-1-yl)cyclohexyl phosphate], with 1.6 nM; and `C[C@H](O)CCn1cc(-c2cc(Sc3ccccc3C#N)c3c(C#N)cnn3c2)cn1` [Example 570], with 1 nM.

The compound `COC(=O)N1CCC(n2ncc(-c3cc(Sc4ccc(F)cc4C#N)c4c(C#N)cnn4c3)c2C)CC1` [Example 361, methyl 4-(4-(3-cyano-4-((2-cyano-4-fluorophenyl)thio)pyrazolo [1,5-a]pyridin-6-yl)-5-methyl-1H-pyrazol-1-yl)piperidine-1-carboxylate] returned an IC50 of 2 nM.
